Earlier results on six compounds are cited in patent US20160296627A1, “INTRACAMERAL IMPLANT FOR TREATMENT OF AN OCULAR CONDITION” (Envisia Therapeutics Inc., priority 2013, published 2016).

Structures are written as SMILES.

Sequence of Cloned Human Ciliary Body FP Prostaglandin Receptor (P43088 whole entry): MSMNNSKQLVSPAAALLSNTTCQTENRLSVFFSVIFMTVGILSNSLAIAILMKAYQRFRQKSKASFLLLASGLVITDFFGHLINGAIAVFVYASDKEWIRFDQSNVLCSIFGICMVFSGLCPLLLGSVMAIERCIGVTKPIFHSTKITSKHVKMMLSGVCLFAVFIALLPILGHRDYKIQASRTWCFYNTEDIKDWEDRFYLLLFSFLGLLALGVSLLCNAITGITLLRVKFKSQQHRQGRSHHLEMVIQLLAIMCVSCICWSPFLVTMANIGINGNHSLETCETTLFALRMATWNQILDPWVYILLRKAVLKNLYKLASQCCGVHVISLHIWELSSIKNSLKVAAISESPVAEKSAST

This data set addresses Cloned Human Ciliary Body FP Prostaglandin Receptor (Homo sapiens, UniProt P43088). To be noted: Sharif et al. 2002, read-out: Functional Potency, EC50.
Take `O=C(O)CCC/C=C\C[C@@H]1[C@@H](/C=C/[C@@H](O)CCc2ccccc2)[C@H](O)C[C@@H]1O` [Bimatoprost acid]: the EC50 is 5.8 nM. With `CCNC(=O)CCC/C=C\C[C@@H]1[C@@H](/C=C/[C@@H](O)CCc2ccccc2)[C@H](O)C[C@@H]1O` [Bimatoprost], the EC50 was 694 nM. On to `O=C(O)CCC/C=C\C[C@@H]1[C@@H](CC[C@@H](O)CCc2ccccc2)[C@H](O)C[C@@H]1O` [Latanoprost acid], for which the EC50 is 54.6 nM. Turning to `CC(C)OC(=O)CCC/C=C\C[C@@H]1[C@@H](CC[C@@H](O)CCc2ccccc2)[C@H](O)C[C@@H]1O` [Latanoprost], the EC50 is 126 nM. Take `O=C(O)CCCC=CCC1C(O)CC(O)C1C=CC(O)COc1cccc(C(F)(F)F)c1` (stereo not drawn) [Travoprost acid]: the EC50 was 3.2 nM. Consider `CC(C)OC(=O)CCC/C=C\C[C@@H]1[C@@H](/C=C/[C@@H](O)COc2cccc(C(F)(F)F)c2)[C@H](O)C[C@@H]1O` [Travoprost, propan-2-yl 7-[3,5-dihydroxy-2-[3-hydroxy-4-[3-(trifluoromethyl)phenoxy]-but-1-enyl]-cyclopentyl]hept-5-enoate], for which the EC50 is 42.3 nM.
